Measured values as given in patent US12653887B2, “T cell manufacturing compositions and methods” (priority 2019, dated 2026).

Tests used:
HLA-A02:01 = target: T1, HLA-A02:01 (Homo sapiens, UniProt P04439, D140Y/D185E/D98H/E176V/E277Q/G131W/G231S/I119V/I121R/I166T/I218V/L300P/L318F/N151K/N90K/P208A/P217A/Q86G/Q94H/R138H/R169H/T345S); assay: Epitope presentation after RNA electroporation of CD25 depleted PBMC, HLA immunoprecipitation and LC-MS/MS; assay type: cell-based; conditions: over 24 hours
T1 construct: endogenous in cells; host or cells: CD25 depleted PBMCs (donor cells)
Protocol: CD25 depleted PBMC cells were electroporated with RNA (depicted in FIG. 60C) and cultured over a period of 24 hours. Cells were harvested at the indicated times, pelleted and flash frozen. HLA-A02:01-peptide complexes were immunoprecipitated and then peptides were eluted and analyzed by LC-MS/MS. Peptide eluted from electroporated cells (Light) were compared to heavy labelled standard peptides (Heavy) for positive identification. (FIG. 63A).

CD8+ T cells = assay: RNA nucleofection of differently prepared PBMCs, multimer assay; assay type: cell-based, human; conditions: for Hit Rate (%) / Mean Frequency: immunogen RNA (25 mer epitopes)
Protocol: In this experiment, PBMCs were variously treated for depletion of certain populations and their expansion and multimer specificity was investigated. Yield of multimer specific T cells was tested by nucleofecting three sets of PBMC preparations with RNA constructs: (i) CD25 depleted PBMCs, (ii) CD14 and CD25 depleted PBMCs, (iii) Frozen CD14 and CD25 depleted PBMCs. In preparation (i), T cells were not separated from the APCs during nucleofection like in preparation (ii) and (iii). These were compared with a set of PBMCs loaded with peptides. All cells were treated with FLT3L prior to electroporation. […] It could be possible that less handling of PBMCs before RNA loading step was advantageous. Depletion of multiple cell components in the PBMC population required subjecting the cell population to multiple antibodies, washing steps and recovery steps, which amounts to handling stress for the cells.
CD25 depleted PBMCs had detectable Gli3 specific CD8+ T cells, and ME1 specific CD8+ T cells. ME1 specific CD8+ T cells were negligible in all the other sets.

CD8+ naïve T cells = assay: CD8+ naïve T cell induction (protocol 1 / protocol 2), pMHC multimer flow cytometry; assay type: cell-based, human; conditions: for fraction of antigen specific CD8+ T cells (multimer): HD35
Protocol: • DC media (Cellgenix) • CD14 microbeads, human, Miltenyi #130-050-201 • Cytokines and/or growth factors • T cell media (AIM V+RPMI 1640 glutamax+serum+PenStrep) • Peptide stocks—1 mM per peptide (HIV A02—5-10 peptides, HIV B07—5-10 peptides, DOM—4-8 peptides, PIN—6-12 peptides) Procedure: Step 1: Monocyte Isolation for DC Prep • 1. Calculate the approximate number of PBMCs to thaw based on expected DC yield for each donor. • 2. Thaw PBMCs and resuspend at ˜1×10^6-1×10^8 cells/mL in DC media. • 3. Add benzonase (1:1000 dilution) and place in incubator with cap loosened. • 4. Perform CD14^+ monocyte enrichment according to manufacturer protocol. • 5. Plate enriched cells in 6-well plates at 1×10^5-1×10^7 per well in DC media with one or more cytokines and/or growth factors selected from GM-CSF, IL-4, FLT3L, TNF-α, IL-1β, PGE1, IL-6, IL-7, IFN-α, R848, LPS, ss-rna40, and polyI:C. Step 2: Peptide Loading and Maturation • 1. Count DCs and split the cells according to the experimental conditions in 15 mL tubes; 0.01-1 million cells per condition. • 2. Spin @1200 rpm for 5 min and resuspend in 50-400 μL DC medium. Add peptide(s) and place in incubator with loosened cap for 0.5-3 hrs. Volumes were calculated for peptide pools at a concentration of 1 mM per peptide. A volume of each separate pool of A02 (5 peptides) and B07 (5 peptides) was added per well for a final concentration of 0.001-100 μM per peptide. • 3. After 0.5-3 hrs. add 200 μL to 1.5 mL of DC media containing maturation mix and transfer the cells to 24 well plate. The maturation mix contains one or more cytokines selected from GM-CSF, IL-4, FLT3L, TNF-α, IL-1β, PGE1, IL-6, IL-7, IFN-α, R848, LPS, ss-rna40, and polyI:C. Step 3: Setting Up Long Term Stimulation (LTS) Experiment • 1. Carefully remove all media from the wells of the DC plates, transferring each well to a separate well in a 24-well deepwell block. • 2. Wash each well with 0.5-3 mL T cell media and combine with DC media in the deepwell block. • 3. Add 100 μL to 2 mL T cell media to each well. • 4. Spin down DCs at 1200 rpm for 5 min. • 5. Remove all supernatant, resuspend DCs in 100 μL to 2 mL T cell media and transfer back into the correct wells. • 6. Thaw PBMCs in T cell media and resuspend at 0.5×10^6-4×10^6 cells/mL in T cell media with IL-7 and IL-15. • 7. Add 0.5-3 mL of prepared PBMCs to each well. Step 4: Feeding LTS
• AIM V media (Invitrogen) • Media 1 (RPMI 1640 glutamax+serum+PenStrep) • Media 2 (AIM V+RPMI 1640 glutamax+serum+PenStrep) Procedure: • Step 1: Plate 4 million PBMCs in each well of 24 well plate with one or more cytokines in Media 2. The one or more cytokines are selected from GM-CSF, IL-4, FLT3L, TNF-α, IL-1β, PGE1, IL-6, IL-7, IFN-α, R848, LPS, ss-rna40, and polyI:C. • Step 2: Peptide loading and maturation in Media 2 • 1. Make stock peptide pool of interest (except for no peptide condition) at 0.001-100 μM for shortmers and 0.001-100 μM for longmers final concentration in respective wells and mix. • 2. Incubate for 0.5-3 hr. • 3. Make stock maturation cocktail and add to each well after incubation and mix. […]

[1] = Donor 1, starting material CD14-CD25- (Base Arm)
[2] = Donor 1, starting material CD14-CD25- (Frozen)
[3] = Donor 1, starting material PBMC (CD25−), IL-7 and IL-15
[4] = Donor 2, starting material CD14-CD25- (Base Arm)
[5] = Donor 2, starting material CD14-CD25- (Frozen)
[6] = Donor 2, starting material PBMC (CD25−)
[7] = Donor 2, starting material PBMC (CD25−), IL-7 and IL-15

| Substance | presentation of the epitope by HLA-A02:01 after RNA electroporation (HLA-A02:01) | Hit Rate (%) (CD8+ T cells; [1]) | Hit Rate (%) (CD8+ T cells; [2]) | Hit Rate (%) (CD8+ T cells; [3]) | Hit Rate (%) (CD8+ T cells; [4]) | Mean Frequency (CD8+ T cells; [4]) | Hit Rate (%) (CD8+ T cells; [5]) | Mean Frequency (CD8+ T cells; [5]) | Mean Frequency (CD8+ T cells; [6]) | Hit Rate (%) (CD8+ T cells; [7]) | other results |
| --- | --- | --- | --- | --- | --- | --- | --- | --- | --- | --- | --- |
| Gli3: Gli3 epitope encoded in the RNA (25 mer epitopes) construct (RLIPGIPTV) | expressed readily as dominant epitopes | 100% | 100% | 83% | 100% | 0.79% | 67% | 0.12% | 2.68% | 83% | Mean Frequency (CD8+ T cells; [1]): 0.98%; Mean Frequency (CD8+ T cells; [2]): 0.52%; Mean Frequency (CD8+ T cells; Donor 1, starting material PBMC (CD25−)): 6.09%; increase in multimer positive cells, RNA transfected versus peptide loaded PBMCs (CD8+ T cells; FIG. 61B): greater than 10 fold |
| CDK4: CDK4 epitope encoded in the RNA (25 mer epitopes) construct (ACDPHSGHFV) | expressed readily as dominant epitopes | 0% | 0% | 0% | 0% | – | 0% | – | – | 0% | – |
| ACTN4: previously identified neoantigen (PIN) short peptide; also encoded in RNA (FIASNGVKLV) | expressed readily as dominant epitopes | 0% | 0% | 0% | 0% | – | 0% | – | – | 0% | fraction of antigen specific CD8+ T cells (multimer) (CD8+ naïve T cells; Prot. 2 (CD25 depleted), day 26, confirmation): 0.095%; fraction of antigen specific CD8+ T cells (multimer) (CD8+ naïve T cells; Prot. 2 (CD25 depleted), day 26, initial): 0.376% |
| ME-1: previously identified neoantigen (PIN) short peptide; also encoded in RNA (FLDEFMEGV) | expressed readily as dominant epitopes | 0% | 0% | 0% | 83% | 0.01% | 0% | 0.01% | 2.97% | 67% | fraction of antigen specific CD8+ T cells (multimer) (CD8+ naïve T cells; Prot. 2 (bulk), day 19, confirmation): 0.927%; fraction of antigen specific CD8+ T cells (multimer) (CD8+ naïve T cells; Prot. 2 (bulk), day 19, initial): 4.15%; fraction of antigen specific CD8+ T cells (multimer) (CD8+ naïve T cells; Prot. 2 (bulk), day 26, confirmation): 2.34%; fraction of antigen specific CD8+ T cells (multimer) (CD8+ naïve T cells; Prot. 2 (bulk), day 26, initial): 12.6%; CD8+ T cells specific to the peptide (CD8+ naïve T cells; protocol 2, after a long induction): 12.6% |
